Measurements published in patent publication US4122184A, “Benzimidazole insecticides” (priority 1977, dated 1978).
Values joined by “and” are separate entries in the source; they are usually repeats but may differ in a detail not shown here. Equal values may be shown once.

Key:
[1] = tested on: Boll Weevil; test: Boll Weevil Test; format: in vivo, Anthonomus grandis (Coleoptera); details: 48 h
From the text: The procedure is identical to that employed for the Mexican bean beetle and the Southern armyworm, except that 10 adult boll weevils are placed on cotton leaves that have been dipped into formulations of the test compounds. The same rating scale is used.

[2] = tested on: Aphids - Apple; test: Field trial, stomach poison test; format: in vivo
Method in brief: (§1)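 Spray (10 psi) or dip leaves from infested plants in test solution; air-dry; put in Petri dish; add 5 or 10 insects; score mortality 0–9 at 24/48/72 h. 1–2 reps, usually 2–3 rates.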

[3] = tested on: Meadow Spittlebug; test: Field trial, stomach poison test; format: in vivo
Method in brief: as §1

[4] = tested on: Striped Cucumber Beetle Adults; test: Field trial, stomach poison test; format: in vivo; parameters: key: mortality rating on a 0 to 9 scale
Method in brief: as §1

[5] = tested on: Bean Leaf Beetle; test: Field trial, contact poison test; format: in vivo
Method in brief: (§2)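 Contact spray, atomizer 10 psi, arm's length, several concentrations; infested plants in water bottles, stems wrapped in cellucotton, plants spaced apart. Scored 24, 48, 72 h; scale 0–9 by percent mortality.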

[6] = tested on: Red-Legged Grasshopper Adults; test: Field trial, contact poison test; format: in vivo
Method in brief: as §2

[7] = tested on: Milkweed Bug; test: Milkweed Bug Test; format: in vivo, Oncopeltis fasciatus (Hemiptera); details: 48 h
Method in brief: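 Ten chilled adult milkweed bugs per cage sprayed with 5 ml test formulation at 10 psi, then fed and watered. Mortality, counting moribund as dead, scored 48 h after spraying; 500 ppm malathion as reference, unsprayed cages as controls.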

[8] = tested on: House Fly; test: Housefly (Stomach) Test; format: in vivo, Musca domestica (Diptera); details: 24 h
Procedure: Ten chilled house flies are taken from the rearing cage and placed in a covered petri dish. Sugar cubes treated with 0.2 ml. of a formulation containing a specified level of the insecticide are placed in the petri dish one hour after the flies have been removed from the chill room. Controls consist of sugar cubes treated with 0.2 ml. of deionized water and cubes treated with 0.2 ml. of a formulation containing 500 ppm of malathion. Mortality counts are made 24 hours later. The same rating scale is used as before.

[9] = tested on: Aphids - Sour Gum; test: Field trial, stomach poison test; format: in vivo
Method in brief: as §1

[10] = tested on: Southern Corn Rootworm Adults; test: Field trial, stomach poison test; format: in vivo; parameters: key: mortality rating on a 0 to 9 scale
Method in brief: as §1

[11] = tested on: Southern Corn Rootworm Adults; test: Field trial, contact poison test; format: in vivo
Method in brief: as §2

[12] = tested on: House Fly; test: Housefly (Contact) Test; format: in vivo, Musca domestica (Diptera); details: 24 h
[13] = tested on: Picnic Beetle; test: Field trial (first summer), topical; format: in vivo; details: .078125 μg/μl
Method in brief: (§3)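 Field trial from the first summer in which 1 µl of test solution holding a set number of micrograms of benzimidazole was applied topically to larvae or adult insects. Mortality at a given route and concentration was scored on a 0–9 scale.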

[14] = tested on: Confused Flour Beetle; test: Field trial (first summer), topical; format: in vivo; details: .15625 μg/μl
Method in brief: as §3

Compound: CC(C)OC(=O)n1c(C(F)(F)F)nc2c([N+](=O)[O-])cc(C(F)(F)F)cc21 [I, isopropyl 2,6-bis(trifluoromethyl)-4-nitro-1-benzimidazolecarboxylate]
- mortality rating ([1]; 25 ppm): 8.5
- mortality rating ([1]; 50 ppm): 8.5
- mortality rating ([1]; 100 ppm): 7.5
- average mortality rating ([2]; 25 ppm): 1
- average mortality rating ([2]; 50 ppm): 5
- average mortality rating ([2]; 100 ppm): 9 (91-100 percent mortality)
- average mortality rating ([3]; 10 ppm): 2
- average mortality rating ([3]; 25 ppm): 5
- average mortality rating ([3]; 50 ppm): 3
- average mortality rating ([4]; 10 ppm): 2
- average mortality rating ([4]; 25 ppm): 3
- average mortality rating ([4]; 50 ppm): 6
- average mortality rating ([4]; 100 ppm): 9 (91-100 percent mortality)
- average mortality rating ([5]; 25 ppm): 0 (0-10 percent)
- average mortality rating ([5]; 50 ppm): 0 (0-10 percent)
- average mortality rating ([5]; 100 ppm): 4
- average mortality rating ([6]; 10 ppm): 2
- average mortality rating ([6]; 25 ppm): 3
- average mortality rating ([6]; 50 ppm): 5

Compound: O=[N+]([O-])c1cc(C(F)(F)F)cc2[nH]c(C(F)(F)Cl)nc12 [L, 2-chlorodifluoromethyl-4-nitro-6-trifluoromethylbenzimidazole]
- mortality rating ([7]; 100 ppm): 4.5
- mortality rating ([8]; 50 ppm): .5
- mortality rating ([1]; 10 ppm): .5
- mortality rating ([1]; 25 ppm): 1.5
- average mortality rating ([2]; 25 ppm): 1
- average mortality rating ([2]; 50 ppm): 1
- average mortality rating ([2]; 100 ppm): 4
- average mortality rating ([9]; 25 ppm): 7
- average mortality rating ([9]; 50 ppm): 7
- average mortality rating ([9]; 100 ppm): 9 (91-100 percent mortality)
- average mortality rating ([3]; 25 ppm): 0 (0-10 percent)
- average mortality rating ([3]; 50 ppm): 1
- average mortality rating ([3]; 100 ppm): 5
- average mortality rating ([10]; 25 ppm): 1
- average mortality rating ([10]; 50 ppm): 4
- average mortality rating ([10]; 100 ppm): 6
- average mortality rating ([5]; 25 ppm): 0 (0-10 percent)
- average mortality rating ([5]; 50 ppm): 4
- average mortality rating ([5]; 100 ppm): 6
- average mortality rating ([6]; 25 ppm): 7
- average mortality rating ([6]; 50 ppm): 9 (91-100 percent mortality)
- average mortality rating ([11]; 25 ppm): 5
- average mortality rating ([11]; 50 ppm): 8
- average mortality rating ([11]; 100 ppm): 9 (91-100 percent mortality)

Compound: mixture of N,N-dimethyl-4-nitro-2,6-bis(trifluoromethyl)thio-1-benzimidazolecarboxamide and N,N-dimethyl-7-nitro-2,5-bis(trifluoromethyl)thio-1-benzimidazolecarboxamide [P]
- mortality rating ([7]; 10 ppm): 0 (0-10)
- mortality rating ([7]; 25 ppm): 0 (0-10)
- mortality rating ([7]; 50 ppm): 3.5
- mortality rating ([7]; 100 ppm): 4.5
- mortality rating ([7]; 250 ppm): 4 (41-50)
- mortality rating ([7]; 500 ppm): 4 (41-50)
- mortality rating ([7]; 1000 ppm): 2 (21-30)
- mortality rating ([12]; 10 ppm): 4.0
- mortality rating ([12]; 25 ppm): 8.5
- mortality rating ([12]; 50 ppm): 9 (91-100)
- mortality rating ([12]; 100 ppm): 9 (91-100)
- mortality rating ([12]; 250 ppm): 9 (91-100)
- mortality rating ([12]; 500 ppm): 9 (91-100)
- mortality rating ([12]; 1000 ppm): 9 (91-100)
- mortality rating ([8]; 50 ppm): 0 (0-10)
- mortality rating ([8]; 100 ppm): 3 (31-40)
- mortality rating ([8]; 250 ppm): 7 (71-80)
- mortality rating ([8]; 500 ppm): 9 (91-100)
- mortality rating ([1]; 10 ppm): 1.5
- mortality rating ([1]; 25 ppm): 5 (51-60)
- mortality rating ([1]; 50 ppm): 8 (81-90)
- mortality rating ([1]; 100 ppm): 9 (91-100)
- mortality rating ([1]; 250 ppm): 9 (91-100)
- mortality rating ([1]; 500 ppm): 9 (91-100)
- mortality rating ([1]; 1000 ppm): 9 (91-100)
- average mortality rating ([4]; 10 ppm): 5
- average mortality rating ([4]; 25 ppm): 4
- average mortality rating ([4]; 50 ppm): 5
- average mortality rating ([4]; 100 ppm): 9 (91-100 percent mortality)
- insect mortality rating [13]: 9 (91-100 percent mortality)

Compound: mixture of phenyl 2,6-bis(trifluoromethyl)-4-nitro-1-benzimidazolecarboxylate and phenyl 2,5-bis(trifluoromethyl)-1-benzimidazolecarboxylate
- mortality rating ([7]; 250 ppm): 1 (11-20)
- mortality rating ([7]; 500 ppm): 9 (91-100)
- mortality rating ([7]; 1000 ppm): 9 (91-100)
- mortality rating ([12]; 10 ppm): 3 (31-40)
- mortality rating ([12]; 25 ppm): 7 (71-80)
- mortality rating ([12]; 50 ppm): 7 (71-80)
- mortality rating ([12]; 100 ppm): 9 (91-100)
- mortality rating ([12]; 250 ppm): 9 (91-100)
- mortality rating ([12]; 500 ppm): 9 (91-100)
- mortality rating ([12]; 1000 ppm): 9 (91-100)
- mortality rating ([8]; 100 ppm): 0 (0-10)
- mortality rating ([8]; 1000 ppm): 9 (91-100)
- mortality rating ([1]; 10 ppm): 1 (11-20)
- mortality rating ([1]; 25 ppm): 5.5
- mortality rating ([1]; 50 ppm): 8 (81-90)
- mortality rating ([1]; 100 ppm): 9 (91-100)
- mortality rating ([1]; 250 ppm): 9 (91-100)
- mortality rating ([1]; 500 ppm): 9 (91-100)
- mortality rating ([1]; 1000 ppm): 9 (91-100)
- average mortality rating ([10]; 25 ppm): 2 and 3
- average mortality rating ([10]; 50 ppm): 4 and 2
- average mortality rating ([10]; 100 ppm): 6 and 8
- average mortality rating ([4]; 10 ppm): 3
- average mortality rating ([4]; 25 ppm): 4
- average mortality rating ([4]; 50 ppm): 4
- average mortality rating ([4]; 100 ppm): 7
- average mortality rating ([5]; 25 ppm): 0 (0-10 percent)
- average mortality rating ([5]; 50 ppm): 0 (0-10 percent)
- average mortality rating ([5]; 100 ppm): 4
- average mortality rating ([6]; 25 ppm): 1
- average mortality rating ([6]; 50 ppm): 7
- average mortality rating ([11]; 25 ppm): 0 (0-10 percent)
- average mortality rating ([11]; 50 ppm): 3
- average mortality rating ([11]; 100 ppm): 7
- insect mortality rating [14]: 9 (91-100 percent mortality)
